Laboratory results reported in article PMC11642889, “Structure-Based Screening and Optimization of PafA Inhibitors with Potent Anti-Tuberculosis Activity” (International Journal of Molecular Sciences, 2024).

Target: Mtb PafA (Mycobacterium tuberculosis, UniProt P9WNU7)
Assay: fluorescent pupylation assay of PanB with 5-carboxyfluorescein-cys-Pup^E
Assay type: biochemical

Sequence of Mtb PafA (P9WNU7 whole entry, looked up): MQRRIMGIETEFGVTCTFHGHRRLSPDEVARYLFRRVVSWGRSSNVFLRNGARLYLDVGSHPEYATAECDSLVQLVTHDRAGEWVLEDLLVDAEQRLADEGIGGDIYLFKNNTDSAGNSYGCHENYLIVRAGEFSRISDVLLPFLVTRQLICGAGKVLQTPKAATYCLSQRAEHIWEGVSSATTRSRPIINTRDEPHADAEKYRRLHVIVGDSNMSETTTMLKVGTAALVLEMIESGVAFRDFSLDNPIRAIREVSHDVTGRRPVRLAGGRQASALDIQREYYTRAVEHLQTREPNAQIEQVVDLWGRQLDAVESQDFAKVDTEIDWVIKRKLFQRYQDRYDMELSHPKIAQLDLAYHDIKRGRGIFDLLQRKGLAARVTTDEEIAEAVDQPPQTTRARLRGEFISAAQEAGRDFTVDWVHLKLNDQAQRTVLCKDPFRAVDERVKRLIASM

Q: How did the IC50 turn out when `NS(=O)(=O)c1ccc(NC(=S)NCCc2ccc(F)cc2)cc1` [Pi-2-26] was run?
A: 46.2 ± 7.96 nM
